From patent publication US7947695B2, “5-membered annelated heterocyclic pyrimidines as kinase inhibitors” (Janssen Pharmaceutica NV, priority 2005, dated 2011) come the findings set out here.

Molecules are shown by their SMILES.

Holding throughout (assay type): biochemical
In experiment [1] the target is T1, AURORA A (Homo sapiens, UniProt O14965).
T1 sequence (O14965 1-403): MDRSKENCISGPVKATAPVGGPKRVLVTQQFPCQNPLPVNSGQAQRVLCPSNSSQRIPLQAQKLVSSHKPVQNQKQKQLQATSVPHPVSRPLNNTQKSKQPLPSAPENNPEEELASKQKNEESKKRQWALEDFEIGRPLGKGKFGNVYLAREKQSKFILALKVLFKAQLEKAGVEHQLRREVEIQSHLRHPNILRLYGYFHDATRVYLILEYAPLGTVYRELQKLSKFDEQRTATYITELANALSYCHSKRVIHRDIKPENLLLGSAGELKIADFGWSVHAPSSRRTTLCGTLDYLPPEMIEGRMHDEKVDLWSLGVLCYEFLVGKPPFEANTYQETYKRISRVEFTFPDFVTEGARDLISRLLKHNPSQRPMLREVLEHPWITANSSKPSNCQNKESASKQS
The experiment is described as follows: In vitro filtration assay for AURORA A inhibitory activity. The settings on record: Kemptide substrate, 1 μM unlabeled ATP, 25° C. 40 minutes, read-out: Aurora A see C.2 (pIC50) (converted). As for the experimental part:
Compounds of the present invention were tested in an in vitro filtration assay assessing AURORA A activity by means of its substrate-phosphorylation activity using [^33P]-ATP as phosphor donor. The radioactive phosphorylated substrate is then captured on filtermats and the incorporated [^33P] quantitated using a phosphorage storage screen.
The Aurora-A kinase reaction is performed at 25° C. for 40 minutes in a 96-well microtiterplate. The 25 μl reaction volume contains 12 mM MOPS pH 7, 0.4 mM EDTA, 0.002% Brij35, 1% glycerol, 0.02% beta-mercapto-ethanol, 0.2 mg/ml BSA, 1 μM unlabeled ATP, […] [^33P]-ATP, 200 μM Kemptide, 3 ng Aurora A/well and 0.2% compound in 100% DMSO.
(§1) The reaction is stopped by adding 5 μl of a 3% phosphoric acid solution. 10 μl of the reaction mixture is then spotted onto a Filtermat P30 filter (Wallac) and washed 3 times for 5 min. in 75 mM phosphoric acid and 1 time for 5 min. in methanol prior to drying and quantification on the Typhoon (Amersham) using a phosphorage storage screen.
(§2) For each experiment, controls (containing enzyme (complex) and DMSO without compound), a blank incubation (containing DMSO but no enzyme (complex) or compound) and samples (containing enzyme (complex) and compound dissolved in DMSO) were run in parallel. All compounds tested were dissolved and eventually further diluted in DMSO. […] In each test, the blank value was subtracted from both the control and the sample values. The control sample represented maximal enzyme activity. For each sample, the amount of cpm was expressed as a percentage of the mean cpm value of the controls. When appropriate, IC50-values (concentration of the drug, needed to reduce the enzyme activity to 50% of the control) were computed using linear interpolation between the experimental points just above and below the 50% level. Herein the effects of test compounds are expressed as pIC50 (the negative log value of the IC50-value).

Experiment [2] has as its target CDK4/cyclinD1 (Homo sapiens, UniProt P11802). As to the kind of experiment: In vitro filtration assay for CDK4 inhibitory activity (pRb phosphorylation, [33P]-ATP). The settings on record: GST-pRb substrate, 1 μM unlabeled ATP, 25° C. 45 minutes, read-out: cdk4 filter (pIC50) (converted). As for the experimental part: Compounds of the present invention were tested in an in vitro filtration assay assessing CDK4 activity by means of its pRb-phosphorylation activity using [^33P]-ATP as phosphor donor. The radioactive phosphorylated pRb is then captured on filtermats and the incorporated [^33P] quantitated using a phosphorage storage screen.
The CDK4 kinase reaction is performed at 25° C. for 45 minutes in a 96-well microtiterplate. The 25 μl reaction volume contains 50 mM Hepes pH 7.5, 10 mM NaF, 10 mM MgCl2, 1 mM Na3VO4, 1 μM unlabeled ATP, 1 mM DTT, 0.5 μCi AT^33P, 0.76 μg/well GST-pRb, 50 ng CDK4/cyclinD1/well and 0.2% compound in 100% DMSO.
as §1, §2

The target in experiment [3] is AURORA B (Homo sapiens, UniProt Q96GD4). As to the kind of experiment: In vitro filtration assay for AURORA B inhibitory activity. The settings on record: peptide (C(LRRWSLG)×4), 1 μM unlabeled ATP, 25° C. 40 minutes, read-out: Aurora B see C.3 (pIC50) (converted). As for the experimental part:
Compounds of the present invention were tested in an in vitro filtration assay assessing AURORA B activity by means of its substrate-phosphorylation activity using [^33P]-ATP as phosphor donor. The radioactive phosphorylated substrate is then captured on filtermats and the incorporated [^33P] quantitated using a phosphorage storage screen.
The Aurora-B kinase reaction is performed at 25° C. for 40 minutes in a 96-well microtiterplate. The 25 μl reaction volume contains 60 mM Hepes pH 7.5, 3 mM MgCl2, 3 mM MnCl2, 3 μM Na3VO4, 50 μg/ml PEG20000, 1 μM unlabeled ATP, 1 mM DTT, 0.2 μCi AT^33P, 0.25 μg/well peptide (C(LRRWSLG)×4),100 ng Aurora-B/well and 0.2% compound in 100% DMSO. The reaction is stopped by adding 5 μl of a 3% phosphoric acid solution. 10 μl of the reaction mixture is then spotted onto a Filtermat P30 filter (Wallac) and washed 3 times for 5 min. in 75 mM phosphoric acid and 1 time for 5 min. in methanol prior to drying and quantification on the Typhoon (Amersham) using a phosphorage storage screen.
as §2

Sequence of CDK4/cyclinD1 (P11802 whole entry): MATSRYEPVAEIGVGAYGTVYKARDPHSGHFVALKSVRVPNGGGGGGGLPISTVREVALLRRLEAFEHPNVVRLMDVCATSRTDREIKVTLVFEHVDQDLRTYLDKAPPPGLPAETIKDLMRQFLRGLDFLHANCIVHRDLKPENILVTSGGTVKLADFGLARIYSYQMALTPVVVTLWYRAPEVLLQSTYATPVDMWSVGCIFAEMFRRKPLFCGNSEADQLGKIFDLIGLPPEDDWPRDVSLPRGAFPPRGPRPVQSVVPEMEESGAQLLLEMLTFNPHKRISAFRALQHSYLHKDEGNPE
Sequence of CDK4/cyclinD1 (P24385 whole entry partner): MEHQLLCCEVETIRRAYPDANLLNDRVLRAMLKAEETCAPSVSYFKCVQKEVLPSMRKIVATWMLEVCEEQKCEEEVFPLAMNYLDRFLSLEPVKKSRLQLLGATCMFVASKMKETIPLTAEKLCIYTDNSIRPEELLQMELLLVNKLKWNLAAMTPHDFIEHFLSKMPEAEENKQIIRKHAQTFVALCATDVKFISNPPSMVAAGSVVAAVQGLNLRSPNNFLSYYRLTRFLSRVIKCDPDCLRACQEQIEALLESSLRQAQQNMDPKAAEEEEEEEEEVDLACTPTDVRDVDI
Sequence of AURORA B (Q96GD4 whole entry): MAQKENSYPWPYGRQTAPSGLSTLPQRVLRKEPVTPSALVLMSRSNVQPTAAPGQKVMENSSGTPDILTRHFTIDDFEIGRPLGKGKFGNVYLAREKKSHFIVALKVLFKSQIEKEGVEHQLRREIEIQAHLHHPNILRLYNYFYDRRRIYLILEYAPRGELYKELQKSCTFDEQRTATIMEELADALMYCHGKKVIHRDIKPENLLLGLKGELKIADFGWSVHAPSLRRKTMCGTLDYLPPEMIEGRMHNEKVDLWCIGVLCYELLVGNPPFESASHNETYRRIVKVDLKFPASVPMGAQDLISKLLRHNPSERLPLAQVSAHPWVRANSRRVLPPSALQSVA

Regarding `CN1CCN(Cc2ccc(N(C(=O)OC(C)(C)C)c3ncc4cnn([C@H]5C[C@@H]6CC[C@H]5C6)c4n3)cc2)CC1` [compound 39], the IC50 in experiment [1] is 6310 nM; in experiment [2], 1580 nM; in experiment [3], > 10000 nM.

Take `CN1CCN(Cc2ccc(Nc3ncc4cnn([C@H]5C[C@@H]6CC[C@H]5C6)c4n3)cc2)CC1` [compound 40]: the IC50 in experiment [1] was 316 nM; in experiment [2] it was 63.1 nM; in experiment [3], 398 nM.

Turning to `CC(C)(C)OC(=O)N(c1ccc(CN2CCOCC2)cc1)c1ncc2cnn([C@H]3C[C@@H]4CC[C@H]3C4)c2n1` [compound 41], the IC50 in experiment [1] is 3160 nM; in experiment [2] it was 3980 nM; in experiment [3], 3160 nM.

On to `COCCCN1CCN(Cc2ccc(N(C(=O)OC(C)(C)C)c3ncc4cnn(C5CCCCC5)c4n3)cc2)CC1` [compound 42], for which the IC50 in experiment [1], in experiment [2] and in experiment [3] was > 10000 nM each time.

As to `COCCCN1CCN(Cc2ccc(Nc3ncc4cnn(C5CCCCC5)c4n3)cc2)CC1` [compound 43], the IC50 in experiment [1] is 126 nM; in experiment [2], 63.1 nM; in experiment [3], 3980 nM.

As for `COCCCC(=O)N1CCN(Cc2ccc(N(C(=O)OC(C)(C)C)c3ncc4cnn(C5CCCCC5)c4n3)cc2)CC1` [compound 44], the IC50 in experiment [1], in experiment [2] and in experiment [3] was > 10000 nM each time.

For `COCCCN(C(=O)OC(C)(C)C)C1CCN(Cc2ccc(N(C(=O)OC(C)(C)C)c3ncc4cnn(C5CCCCC5)c4n3)cc2)CC1` [compound 46], the IC50 in experiment [1], in experiment [2] and in experiment [3] was > 10000 nM in each case.

Consider `COCCCNC1CCN(Cc2ccc(Nc3ncc4cnn(C5CCCCC5)c4n3)cc2)CC1` [compound 47], for which the values for the IC50 in experiment [1], in experiment [2] and in experiment [3] were 316 nM, 31.6 nM and 3980 nM, respectively.

Consider `CN1CCN(Cc2ccc(N(C(=O)OC(C)(C)C)c3ncc4cnn(C5CCOCC5)c4n3)cc2)CC1` [compound 48], for which the IC50 in experiment [1], in experiment [2] and in experiment [3] was > 10000 nM throughout.

As for `CC(C)(C)OC(=O)N(c1ccc(CN2CCOCC2)cc1)c1ncc2cnn(C3CCOCC3)c2n1` [compound 50], the IC50 in experiment [1], in experiment [2] and in experiment [3] was > 10000 nM throughout.

As for `c1cc(Nc2ncc3cnn(C4CCOCC4)c3n2)ccc1CN1CCOCC1` [compound 51], the IC50 in experiment [1] was 1000 nM; in experiment [2] it was 5010 nM; in experiment [3], > 10000 nM.

`c1cc(Nc2ncc3cnn([C@H]4C[C@@H]5CC[C@H]4C5)c3n2)ccc1CN1CCOCC1` [compound 52]: the values for the IC50 in experiment [1], in experiment [2] and in experiment [3] were 158 nM, 79.4 nM and 316 nM, respectively.

As to `CC(C)(O)CN1CCN(Cc2ccc(Nc3ncc4cnn(C5CCOCC5)c4n3)cc2)CC1` [compound 53], the IC50 in experiment [1] is > 10000 nM; in experiment [2], 501 nM; in experiment [3], 7940 nM.

Turning to `OCCN1CCN(Cc2ccc(Nc3ncc4cnn(C5CCOCC5)c4n3)cc2)CC1` [compound 54], the IC50 is > 10000 nM in experiment [1], 631 nM in experiment [2] and > 10000 nM in experiment [3].

As to `CC(C)(C)OC(=O)N(c1ccc(CN2CCN(CCO)CC2)cc1)c1ncc2cnn(C3CCOCC3)c2n1` [compound 55], the IC50 in experiment [1], in experiment [2] and in experiment [3] was > 10000 nM throughout.

As to `O=C(c1ccc(Nc2ncc3cnn(C4CCCCC4)c3n2)cc1)N1CCOCC1` [compound 56], the IC50 in experiment [1] was 126 nM; in experiment [2], 25.1 nM; in experiment [3], 3160 nM.

With `CN1CCN(C(=O)c2ccc(Nc3ncc4cnn([C@H]5C[C@@H]6CC[C@H]5C6)c4n3)cc2)CC1` [compound 57], the IC50 in experiment [1] was 100 nM; in experiment [2], 100 nM; in experiment [3] it was 7940 nM.

On to `CC(C)(O)CN1CCN(C(=O)c2ccc(Nc3ncc4cnn(C5CCCCC5)c4n3)cc2)CC1` [compound 58], for which the IC50 is 126 nM in experiment [1], 631 nM in experiment [2] and 1260 nM in experiment [3].

As for `c1cc(Nc2ncc3cnn(C4CCCCC4)c3n2)ccc1CNC1CCNCC1` [compound 59], the IC50 in experiment [1] is 794 nM; in experiment [2], 15.8 nM; in experiment [3] it was > 10000 nM.

Take `CC(C)(C)OC(=O)N1CCC(N(Cc2ccc(Nc3ncc4cnn(C5CCCCC5)c4n3)cc2)C(=O)OC(C)(C)C)CC1` [compound 61]: the IC50 in experiment [1] is 1260 nM; in experiment [2] it was > 10000 nM; in experiment [3] it was > 10000 nM.

With `CN1CCC(N(Cc2ccc(Nc3ncc4cnn(C5CCCCC5)c4n3)cc2)C(=O)OC(C)(C)C)CC1` [compound 62], the IC50 is 158 nM in experiment [1], 25.1 nM in experiment [2] and 6310 nM in experiment [3].

Regarding `CC(C)(O)CN1CCC(NCc2ccc(Nc3ncc4cnn(C5CCCCC5)c4n3)cc2)CC1` [compound 63], the values for the IC50 in experiment [1], in experiment [2] and in experiment [3] were 1000 nM, 25.1 nM and 2510 nM, respectively.

As to `CC(C)(C)OC(=O)N(c1ccc(CNCCN2CCOCC2)cc1)c1ncc2cnn([C@H]3C[C@@H]4CC[C@H]3C4)c2n1` [compound 64], the IC50 in experiment [1] was > 10000 nM; in experiment [2], 6310 nM; in experiment [3], > 10000 nM.

Consider `c1cc(Nc2ncc3cnn([C@H]4C[C@@H]5CC[C@H]4C5)c3n2)ccc1CNCCN1CCOCC1` [compound 65], for which the IC50 in experiment [1] was 501 nM; in experiment [2] it was 200 nM; in experiment [3] it was 501 nM.

As for `c1cc(Nc2ncc3cnn(C4CCCCC4)c3n2)ccc1CNC1CCOCC1` [compound 67], the values for the IC50 in experiment [1], in experiment [2] and in experiment [3] were 1580 nM, 251 nM and 1000 nM, respectively.

Take `CN1CCC(NCc2ccc(N(C(=O)OC(C)(C)C)c3ncc4cnn([C@H]5C[C@@H]6CC[C@H]5C6)c4n3)cc2)CC1` [compound 68]: the IC50 in experiment [1] was 6310 nM; in experiment [2], 1000 nM; in experiment [3], 7940 nM.

For the compound `CN1CCC(NCc2ccc(Nc3ncc4cnn([C@H]5C[C@@H]6CC[C@H]5C6)c4n3)cc2)CC1` [compound 69], the figures for the IC50 in experiment [1], in experiment [2] and in experiment [3] were 631 nM, 25.1 nM and 1000 nM, respectively.

With `CC(C)(C)OC(=O)N(c1ccc(CNCCN2CCOCC2)cc1)c1ncc2cnn(C3CCOCC3)c2n1` [compound 70], the IC50 in experiment [1], in experiment [2] and in experiment [3] was > 10000 nM in each case.

Consider `c1cc(Nc2ncc3cnn(C4CCOCC4)c3n2)ccc1CNCCN1CCOCC1` [compound 71], for which the IC50 in experiment [1] was 5010 nM; in experiment [2] it was 2510 nM; in experiment [3], > 10000 nM.
